Measurements reported in patent publication US20110086836A1, “Substituted Phenylpiperidine Derivatives As Melanocortin-4 Receptor Modulators” (Santhera Pharmaceuticals (Schweiz) AG, priority 2006, published 2011).

What was measured:
[1] = target: T1, human melanocortin-4 receptor (hMC-4R) (Homo sapiens, UniProt P32245); assay: hMC-4R binding assay (fluorescence polarization, competition with fluorescence labeled NDP-alpha-MSH); conditions: HEK293 cell membrane preparations expressing human melanocortin receptors
T1 construct: expressed in transfected cells; host or cells: HEK293 (membrane preparations)
T1 sequence (P32245 whole entry): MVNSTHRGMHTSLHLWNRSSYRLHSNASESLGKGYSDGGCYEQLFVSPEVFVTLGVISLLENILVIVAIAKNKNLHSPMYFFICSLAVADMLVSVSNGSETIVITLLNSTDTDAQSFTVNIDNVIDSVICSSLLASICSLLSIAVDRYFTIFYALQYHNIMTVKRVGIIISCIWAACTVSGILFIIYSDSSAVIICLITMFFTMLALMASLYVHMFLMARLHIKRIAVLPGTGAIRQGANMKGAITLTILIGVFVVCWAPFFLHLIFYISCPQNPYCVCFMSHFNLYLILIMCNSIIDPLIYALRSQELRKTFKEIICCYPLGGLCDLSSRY
Method: The plate is incubated for 5 h at room temperature.
The degree of fluorescence polarization is determined with a fluorescence polarization microplate reader.

[2] = target: T1, human melanocortin-4 receptor (hMC-4R); assay: hMC-4R functional assay (membrane based cAMP fluorescence polarization); type: biochemical; parameters: concentration or dose not given beside the values; conditions: cAMP produced compared to stimulation with NDP-alpha-MSH
Method: Agonistic activity of human melanocortin receptors is determined in a homogeneous membrane based assay.
Membrane preparations from HEK293 cells expressing the human melanocortin receptors are added. After a short preincubation period, an appropriate amount of ATP, GTP and the cAMP antibody is added and the plate is further incubated before the fluorescence labeled cAMP conjugate is dispensed. The plate is incubated for 2 h at 4° C. before it is read on a fluorescence polarization microplate reader.

Row | IC50 [1] | % activation functional assay [2] | SMILES
1 | 5.3 nM | 0% | O=C(N[C@H](Cc1ccc(Cl)cc1Cl)C(=O)N1CCC(c2ccccc2CCCN2CCCC2)CC1)N1CCOCC1 [Example 95]
2 | 9.6 nM | 0% | O=C(N[C@H](Cc1ccc(Cl)cc1Cl)C(=O)N1CCC(c2ccccc2CCN2CCC(F)CC2)CC1)N1CCCC1 [Example 36]
3 | 3.7 nM | 0% | O=C(N[C@H](Cc1ccc(Cl)cc1Cl)C(=O)N1CCC(c2ccccc2OCCN2CCCC2)CC1)N1CCCC1 [Example 2]

Continued, molecule first:

Row | SMILES | IC50 [1] | % activation functional assay [2]
4 | CN(C)[C@H]1CCN(C(=O)N[C@H](Cc2ccc(Cl)cc2Cl)C(=O)N2CCC(c3ccccc3OCCN3CCCC3)CC2)C1 [Example 113] | 3 nM | 0%
5 | O=C(N[C@H](Cc1ccc(Cl)cc1Cl)C(=O)N1CCC(c2ccccc2OCCN2CCCC2)CC1)N1CCC(F)(F)C1 [Example 110] | 4.4 nM | 0%
